These results are taken from patent publication US20070249540A1, “Methods for Inhibiting Proteasome and Heat Shock Protein 90” (priority 2004, published 2007).

Assay [1] has as its system MCF-7 breast cancer cells. The experiment in a line: Sensitization of MCF-7 breast cancer cells to the cytotoxic effects of Taxol. The class given is cell-based, human. Particulars: MCF-7, 0.01 μM Taxol alone. The procedure: Tumor cells are allowed to proliferate in the presence of an inhibitory agent for 48 to 96 hrs. At the end of the assay, tumor cell proliferation in the presence of the inhibitory agent is determined either by cell counting or BrdU incorporation and expressed as % of Control Proliferation, where the term “Control Proliferation” refers to tumor cell proliferation in the absence of any inhibitory or other agents.
MCF-7 breast cancer cells were plated onto a 24-well plate at a density of 208,000 cells per well and allowed to adhere overnight. Subsequently, the cells were treated with 0.01 μM taxol, a concentration known to inhibit 50% of MCF-7 cell proliferation. 6 hrs after the addition of taxol, half of the wells received 0.001 μM SEQ ID NO: 2. […] Cell proliferation of control (untreated) MCF-7 cells and MCF-7 cells treated either with Taxol or SEQ ID NO: 2 alone or with the combination of Taxol and SEQ ID NO: 2 was determined.

Assay [2] has as its system MCF-7 breast cancer cells. Conditions: 0.01 μM taxol, stated as known; cited from earlier work.

Consider `CC(=O)O[C@H]1C(=O)[C@@]2(C)[C@H]([C@H](OC(=O)c3ccccc3)[C@]3(O)C[C@H](OC(=O)[C@H](O)[C@@H](NC(=O)c4ccccc4)c4ccccc4)C(C)=C1C3(C)C)[C@]1(OC(C)=O)CO[C@@H]1C[C@@H]2O` [Taxol], for which the “% Control Proliferation” value in assay [1] amounted to 52%. In addition, the “inhibition of MCF-7 cell proliferation” value in assay [2] is 50%.
